Results reported in patent publication US8048883B2, “Polymorphic form of imatinib mesylate and a process for its preparation” (Natco Pharma Limited, priority 2004, dated 2011).
“Also recorded” adds a separate entry of the source. Like-named read-outs stand apart in the source and are kept apart here.

Assays:
Assay type in all cases: physicochemical
[1] = Comparative dissolution of Imatinib mesylate capsules 100 mg (α2 and β-forms)
[2] = Heat stability of α2-crystal form, examined by XRPD; conditions: for Polymorph form detected after heating: XRPD
Text: Pure α2-crystal polymorph 1 gm prepared by the process described in Example 1 was taken in a boiling test tube and heated gradually in oil bath the substance was examined by XRPD. The results are tabulated below

[3] = Stability of α2 form under accelerated stress conditions in bulk and formulated capsule, XRPD
Hygroscopicity = experiment: Hygroscopicity
[4] = Flow properties / suitability for solid dosage forms
[5] = Stability of the polymorphic form (metastable or stable); conditions: room temperature and higher temperatures up to 120° C.
[6] = 0 Month at 40 ± 2° C./75 ± 5% RH
[7] = 1 Month at 40 ± 2° C./75 ± 5% RH
[8] = 2 Months at 40 ± 2° C./75 ± 5% RH
[9] = 3 Months at 40 ± 2° C./75 ± 5% RH
[10] = 6 Months at 40 ± 2° C./75 ± 5% RH

Cc1ccc(NC(=O)c2ccc(CN3CCN(C)CC3)cc2)cc1Nc1nccc(-c2cccnc2)n1 [α2 form, N-{5-[4-(4-methylpiperazino-methyl)-benzoylamido]-2-methylphenyl}-4-(3-pyridyl) 2-pyrimidine-amine]
Dissolution of the capsule formulation compared with the β-form formulation [1]: better dissolution characteristics
Dissolution in capsule formulation ([1]; during 30 min): Dissolution of more than 95%
Dissolution of the capsule formulation compared with the β-form formulation ([1]; listed as α2-form): comparable and even better
Polymorph form detected after heating ([2]; 110° C., 2 hours): α2 form
Polymorph form detected after heating ([2]; 110° C., 4 hours): α2 form
Heat stability ([2]; 120° C. for 6 hours): non-metastable and stable; also recorded: fairly stable to heat
Polymorph form detected after heating ([2]; 120° C., 2 hours): α2 form
Polymorph form detected after heating ([2]; 120° C., 4 hours): α2 form
Polymorph form detected after heating ([2]; 120° C., 6 hours): α2 form
Polymorph content of bulk imatinib mesylate, polymorph form detected [3, 6]: α2 form
Polymorph content of imatinib mesylate in formulated capsule, polymorph form detected [3, 6]: α2 form
Polymorph content of bulk imatinib mesylate, polymorph form detected [3, 7]: α2 form
Polymorph content of imatinib mesylate in formulated capsule, polymorph form detected [3, 7]: α2 form
Polymorph content of bulk imatinib mesylate, polymorph form detected [3, 8]: α2 form
Polymorph content of imatinib mesylate in formulated capsule, polymorph form detected [3, 8]: α2 form
Polymorph content of bulk imatinib mesylate, polymorph form detected [3, 9]: α2 form
Polymorph content of imatinib mesylate in formulated capsule, polymorph form detected [3, 9]: α2 form
Polymorph content of bulk imatinib mesylate, polymorph form detected [3, 10]: α2 form
Polymorph content of imatinib mesylate in formulated capsule, polymorph form detected [3, 10]: α2 form
Conversion to β-polymorphic form in capsule ([3]; about 40° C. and about 75% relative humidity for 6 months): does not show any significant conversion
Conversion over time to form β ([3]; bulk form or dosage form, about 40° and about 75% relative humidity, at least about 6 months): does not substantially convert
Stability at normal and accelerated stress conditions ([3]; in bulk and formulated capsule form): stable
Hygroscopicity (Hygroscopicity): Non-hygroscopic
Flow properties of the formulations, α2 form compared with β-form ([4]; same excipient composition): comparable
Flow properties ([4]; suitability for pharmaceutical solid dosage forms): Found to be well suited for
Stability ([5]; listed as α2): stable
Stability ([5]; listed as α2-form): stable
